These compounds were tested on INS-1E rat beta cells, no cytokines, CellTiter-Glo ATP, 48 h (assay: cytokine-free beta-cell viability effect – INS-1E rat cells, ATP luminescence, cherry pick, counter-screen for beta-cell apoptosis protection project, dose response (AID 463229)).
Oc1c(CN2CCN(c3ccccc3)CC2)cc(Br)c2cccnc12 was tested, and the AC50 was 5.87 µM. Compound CC(C)CN(C(=O)COC(=O)C12CC3CC(CC(Cl)(C3)C1)C2)c1c(N)n(Cc2ccccc2)c(=O)[nH]c1=O has an AC50 of 6.97 µM. O=C1C(Cl)=C(Nc2ccc3cn[nH]c3c2)C(=O)c2ccccc21 gave an AC50 of 4.47 µM. COc1ccc(NS(=O)(=O)c2ccc(N3CCCCC3)c(N)c2)cc1 gave an AC50 of 4.75 µM. For COc1ccc([N+](=O)[O-])c(S(=O)(=O)c2ccc(Cl)cc2)n1, the AC50 was 7.61 µM. Work on Cc1c(C(C)C)c(=O)n(-c2ccc(S(=O)(=O)NCc3ccccc3)cc2)n1C yielded an AC50 of 3.71 µM. Compound O=C(N/N=C/c1cc(Cl)ccc1O)c1ccc(Br)cc1 has an AC50 of 4.07 µM. With CC(C)C[C@H](NC(=O)c1nc[nH]c1C(=O)N[C@@H](CC(C)C)C(=O)OC(C)(C)C)C(=O)OCc1ccccc1 the AC50 was 14.6 µM. With Oc1cc(-c2ccc(N3CCCCC3)nc2)cc2cccnc12 the AC50 was 7.31 µM. With C=CCn1nc([N+](=O)[O-])nc1Sc1cccc2cccnc12 the AC50 was 6.79 µM. Compound C/C(=N\NC(=O)c1nnn(-c2nonc2N)c1-c1ccccc1)c1ccccc1O has an AC50 of 2.17 µM. For CC1CCc2c(sc3nc(C(C)(C)C)nc(N4CCN(C(=O)CCl)CC4)c23)C1 (stereo unspecified), the AC50 was 7.59 µM. With CCN(CC)c1ccc(/C=N/Nc2nc(C)cc(C)n2)c(O)c1 the AC50 was 15.8 µM. CCOC(=O)c1ccc(NC(=O)c2nc(S(=O)(=O)Cc3ccccc3)ncc2Cl)cc1 showed an AC50 of 9.2 µM. Compound CC1CCN(Cc2c(C(=O)N/N=C/c3cc(Cl)ccc3O)nnn2-c2nonc2N)CC1 has an AC50 of 2.08 µM. For O=C(N/N=C\c1c(O)ccc2ccccc12)c1ccc(S(=O)(=O)N2CCCCC2)cc1, the AC50 was 1.11 µM. NC1=NC[C@@H](CC2CCCCC2)N1CCc1cc(C(F)(F)F)cc(C(F)(F)F)c1 showed an AC50 of 9.46 µM. Work on CC1CN(CC(O)COC(c2ccc(Cl)cc2)c2ccc(Cl)cc2)CC(C)O1 (stereo unspecified) yielded an AC50 of 14.2 µM. COC(=O)c1cc(O)cc(OC)c1Oc1cc(C)cc(O)c1C(=O)O showed an AC50 of 5.37 µM. For COc1ccc(OC)c(NC(=O)CN(Cc2ccc(F)cc2)C2CCCCC2)c1, the AC50 was 4.49 µM. For c1ccc(-c2csc3ncnc(NCC4COc5ccccc5O4)c23)cc1 (stereo unspecified), the AC50 was 2.79 µM.

From PubChem BioAssay AID463229 (Broad Institute, 2010)
